{
  "source": "patent US9529006B1",
  "about": "“Method for direct detection of lipid binding agents in membrane” (KING SAUD UNIVERSITY, priority 2015, dated 2016)",
  "key": {"[1]": {"assay": "Electrophysiology, gA and Alm channel currents in lipid bilayer", "conditions": "for conductance events in channels in lipid bilayer: gA V=200 mV, Alm V=150 mV", "procedure": "(§1) As defined herein, a liposome is a spherical vesicle having at least one lipid bilayer. The liposome can be used as a vehicle for administration of nutrients and pharmaceutical drugs. Liposomes can be prepared routinely by disrupting biological membranes (such as by sonication). Two different kinds of processes to address membrane effects of all three different classes of MAAs were developed. First, the electrophysiology (EP) trials were performed to record membrane currents across lipid bilayer membranes doped with AMPs (antimicrobial peptides) or CDs (chemotherapy drugs). This technique helps to detect the presence of any stable, semi-stable or transient structures that might be induced into the lipid bilayer membrane as a result of MAA-lipid coexistence. To understand the membrane effect of aptamers, fluorescence (FL) measurements on liposome bound aptamers were performed. This method helps to understand the general lipid membrane binding of aptamers.\nThe membrane effects of AMPs were tested using established electrophysiology technique. Here, gA (gramicidin A) monomer with 15 amino acids was used for constructing gA channels and Alm (alamethicin) monomers were used for constructing Alm channels in a bilayer constructed using lipid 1,2-Dioleoyl-sn-Glycero-3-Phosphocholine. For the membrane effects of CDs, planar lipid bilayers were formed by applying a lipid cocktail of Phosphoethanolamine: phosphatydyleserine: phosphatidylcholine (5:3:2, v/v/v)/n-decane using the painting method over a 150 μm septum of a bilayer cuvette. The aptamer-lipid binding aspects were addressed by preparing liposomes using liposome technology. The liposomes were prepared with 1,2-dipalmitoyl-sn-glycero-3-phosphatidylcholine (DPPC) and 1,2-dipalmitoyl-sn-glycero-3-phospho-L-serine (sodium salt) (DPPS). Buffer with the liposome-bound and unbound aptamers containing 6-carboxyfluorescein (6-FAM) fluorescent tag attached at the 3′ end of the DNA sequence was separated using standard binding assay. The solution with bound aptamers was then investigated for fluorescence quantification. The following examples will further illustrate the direct detection method (DDM).\nMembrane currents across lipid bilayer membranes doped with antimicrobial peptides (AMPs) or chemotherapy drugs (CDs) were investigated. The pattern of the general time dependent ion pore conducting current fluctuations is MAA specific. The amplitude and stability of the current events are found to vary due to the differences in the structures of MAAs. Some ion pores conduct currents with constant amplitudes over a period of time considered as pore lifetime. While a few other pores are found to conduct currents with fluctuating amplitudes over their lifetimes.\nThe gA channel activity was recorded at V=200 mV and Alm at V=150 mV. Here IgA=29±2, 113±5, 243±9 and 386±10 pA respectively are the discrete current levels 0, 1, 2, 3, . . . , etc. in Alm channel. Traces representing gA and Alm channel activities in phospholipid bilayers were recorded at filter frequencies 2 kHz and 20 kHz, respectively. A lower filter frequency for traces representing gA channel activity is alright because of the channel's relatively higher stability. In (B) the point count plots of the current traces through gA and Alm channels peak at discrete values of conductance.\nAMP gA is reported to induce conductance events that conducts constant current IgA pA over its lifetime τgA. At the formation and breaking of a gA channel the current undergoes transitions between 0→IgA pA and IgA→0 pA respectively. The current transitions between 0 ? IgA pA happen instantaneously that means current transitions take almost no time. Here, IgA is constant (˜in low range pA) for any gA channel but TO appears with all possible values within a range 0 to a very high value in ms order]. With varied number of amino acids in gA monomer the value of both IgA and τgA vary. Detailed analysis can be found in ref. [2-6]. […]"}, "[2]": {"assay": "Electrophysiology, membrane currents across planar lipid bilayers doped with chemotherapy drugs", "conditions": "90 μM, pH=5.7, V=100 mV", "experimental": "The gA channel activity was recorded at V=200 mV and Alm at V=150 mV. […] Traces representing gA and Alm channel activities in phospholipid bilayers were recorded at filter frequencies 2 kHz and 20 kHz, respectively."}, "[3]": {"assay": "Fluorescence measurements on liposome bound aptamers, liposome containing only PC", "format": "binding", "conditions": "liposomes containing no PS", "procedure": "as §1, with “This technique helps to detect the presence of any stable, semi-stable or transient structures that might be induced into the lipid bilayer membrane as a result of MAA-lipid coexistence.” left out, “This method helps to understand the general lipid membrane binding of aptamers.” left out\n(§2) The membrane effects of AMPs were tested using established electrophysiology technique. […] The solution with bound aptamers was then investigated for fluorescence quantification. […]\n(§3) The aptamer-lipid binding aspects were addressed by preparing liposomes using known liposome technology. […] The solution with bound aptamers was then investigated for fluorescence quantification.\n(§4) Binding affinity and selectivity of designed DNA aptamers were measured. […] The fluorescence (FL) measured in relative fluorescence units (RFU) is plotted against the [DNA] aptamer concentration. […]"}, "[4]": {"assay": "Fluorescence measurements on liposome bound aptamers, liposomes containing PS", "format": "binding", "conditions": "liposomes containing 10% PS (DPPC and DPPS 9:1); 6-FAM tagged aptamer", "procedure": "as §1, with “This technique helps to detect the presence of any stable, semi-stable or transient structures that might be induced into the lipid bilayer membrane as a result of MAA-lipid coexistence.” left out, “This method helps to understand the general lipid membrane binding of aptamers.” left out\nas §2, §3, §4"}},
  "note": "Where a SMILES comes first, the peptide text is derived from it. [ ]: non-standard residue; d: D form. Phe(ol) = N[C@H](CO)Cc1ccccc1; Aib = CC(C)(N)C(=O)O",
  "data": [
    {"compound": "CC(=O)NC(C)(C)C(=O)N1CCC[C@H]1C(=O)NC(C)(C)C(=O)N[C@@H](C)C(=O)NC(C)(C)C(=O)N[C@@H](C)C(=O)N[C@@H](CCC(N)=O)C(=O)NC(C)(C)C(=O)N[C@H](C(=O)NC(C)(C)C(=O)NCC(=O)N[C@@H](CC(C)C)C(=O)NC(C)(C)C(=O)N1CCC[C@H]1C(=O)N[C@H](C(=O)NC(C)(C)C(=O)NC(C)(C)C(=O)N[C@@H](CCC(=O)O)C(=O)N[C@@H](CCC(N)=O)C(=O)N[C@H](CO)Cc1ccccc1)C(C)C)C(C)C", "note": "[Alm, alamethicin] (Ac-[Aib]P[Aib]A[Aib]AQ[Aib]V[Aib]GL[Aib]PV[Aib][Aib]EQ[Phe(ol)])", "values": [
      {"measurement": "discrete current level 0 in Alm channel", "setting": "[1]; V=150 mV, level 0", "value": "29±2", "unit": "pA"},
      {"measurement": "discrete current level 1 in Alm channel", "setting": "[1]; V=150 mV, level 1", "value": "113±5", "unit": "pA"},
      {"measurement": "discrete current level 2 in Alm channel", "setting": "[1]; V=150 mV, level 2", "value": "243±9", "unit": "pA"},
      {"measurement": "discrete current level 3 in Alm channel", "setting": "[1]; V=150 mV, level 3", "value": "386±10", "unit": "pA"},
      {"measurement": "conductance events in channels in lipid bilayer", "setting": "[1]", "value": "rectangular-shape conductance events"}
    ]},
    {"compound": "COc1c(O[C@@H]2O[C@H](CO)[C@@H](O)[C@H](O)[C@H]2O)cc2c(c1OC)-c1ccc(SC)c(=O)cc1[C@@H](NC(C)=O)CC2", "note": "[TCC, thiocolchicoside]", "values": [
      {"measurement": "conductance events induced in lipid bilayer", "setting": "[2]", "value": "triangular-shaped conductance events"}
    ]},
    {"compound": "SIIAp1: designed DNA aptamer, sequence (5′ → 3′) CAGAAAAAAAC (DNA, backbone and methylation of C not given here; further chemistry not fully specified)", "values": [
      {"measurement": "binding of aptamer with liposome containing only PC (fluorescence)", "setting": "[3]", "value": "low non-specific binding"},
      {"measurement": "binding of aptamer with liposomes containing PS (fluorescence, RFU vs [DNA])", "setting": "[4]", "value": "selective binding"}
    ]},
    {"compound": "SIIAp2: designed DNA aptamer, sequence (5′ → 3′) CAGAAAAAAAT (DNA, backbone and methylation of C not given here; further chemistry not fully specified)", "values": [
      {"measurement": "binding of aptamer with liposomes containing PS (fluorescence, RFU vs [DNA])", "setting": "[4]", "value": "selective binding"}
    ]},
    {"compound": "gramicidin A [gA]", "values": [
      {"measurement": "conductance events in channels in lipid bilayer", "setting": "[1]", "value": "rectangular-shape conductance events"}
    ]}
  ]
}
